Measurements reported in patent publication US10045978B2 (AB SCIENCE, priority 2010, dated 2018).

Tested on: patients with indolent forms of mastocytosis with handicap, D816V absent in at least one infiltrated organ
Test: Example 1 phase 2a study, response assessment
Type: in vivo, human
Design: Hamilton rating Δ Mean ± SD / QLQ-C30 Symptom Δ Mean ± SD / QLQ-C30 Global Health Δ Mean ± SD / AFIRMM Δ Mean ± SD / Hamilton rating ΔMean ± SD / QLQC30 Symptom ΔMean ± SD / QLQC30 Global Health ΔMean ± SD / AFIRMM ΔMean ± SD: scale not given here
Conditions: for AFIRMM ΔMean ± SD / Flushes per day ΔMean ± SD / Hamilton rating ΔMean ± SD / Micturitions per day ΔMean ± SD / OPA Score Change: (2, 3, 4) to (0, 1) / OPA Score No change / Pruritus ΔMean ± SD / QLQC30 Functional ΔMean ± SD / QLQC30 Global Health ΔMean ± SD / QLQC30 Symptom ΔMean ± SD / Stools per day ΔMean ± SD: extension-phase cohort
Protocol: Eligible patients were aged >18 years, had previously documented indolent systemic, smoldering systemic or cutaneous mastocytosis as per the WHO classification with associated disability as the result of mast cell released mediators and had not responded to usual symptomatic treatments for more the 6 months. […] A single occurrence of this criterion was deemed sufficient for inclusion and so no systematic examination of multiple organs was carried out specifically for this study.
Patients were classified as having a handicap if after appropriate symptomatic treatments they fulfilled at least one of the following a priori criteria: number of flushes/day ≥1; pruritus score ≥6; number of stools ≥4/day; micturition frequency ≥8/day; Hamilton rating for depression ≥10; or EORTC quality-of-life questionnaire (QLQ-C30) symptom score, functional score, and global health status of >0. Patients were excluded if they experienced inadequate organ function defined via blood test levels, or an Eastern Cooperative Oncology Group performance status >2. Other exclusion criteria included: life expectancy <6 months, severe or uncontrolled medical disease, and patients who were pregnant or nursing.
In accordance to the AFIRMM study (Hermine O, et al., 2008, PLoS ONE. 3:e2266), evaluation of treatment response was based upon the change of clinical symptoms associated with a patient's handicaps at week 12 (W12) relative to baseline. Primary endpoints were daily frequency of flushes; pruritus score; and Hamilton rating for depression, as well as, daily stool and micturition frequencies; QLQ-C30 global health status, functional, and symptom scores. […] For those patients entering the extension phase, assessments were performed every 4 weeks for the first 3 months of extension, and every 12 weeks thereafter. Secondary endpoints included the W12 assessment of AFIRMM score (a validated questionnaire assessing the self-perceived severity of mastocytosis) (Hermine O, et al., 2008, PLoS ONE. 3:e2266); overall patient assessment (OPA) score; tryptase levels; and change in organ mast cell infiltration. Determination of D816V mutation and serum tryptase levels was conducted following procedures described previously (Hermine O, et al., 2008, PLoS ONE. 3:e2266). Overall clinical response analysis at W12 defined a responder as having an improvement of ≥50% in baseline handicap of a key response endpoint (Hamilton rating, flushes, or pruritus) without deterioration or emergence of handicap. Any patient with deterioration of ≥50% in any handicap, and/or with emergence of a new handicap with an increase of ≥50% from baseline was considered as worsening. Any patient who discontinued the study before W12 was considered a non responder. Discrimination between dose regimens was investigated by analyses of the ‘time to first response’, according to the initial dosage, and ‘dose at time of first response’ in key response endpoints.
Response analysis was performed on subgroups of the ITT population according to a patient's handicap at baseline and for whom response was evaluated at W12; referred to hereafter as the handicap-related population. No data imputation was implemented. The per protocol (PP) population was defined as a subset of a given handicap-related population, which in addition had presented no major protocol deviations. Summary response data are presented using descriptive statistics with mean improvement compared to baseline in each handicap cohort, regardless of disease classification. The appropriate Wilcoxon or Fisher tests were used for group comparison of baseline disease, demographic characteristics between dose level groups and response relative to baseline. Subpopulation analysis was also conducted according to initial c-Kit status.

Question: For `Cc1ccc(NC(=O)c2ccc(CN3CCN(C)CC3)cc2)cc1Nc1nc(-c2cccnc2)cs1` [masitinib, 4-(4-methylpiperazin-1-ylmethyl)-N-[4-methyl-3-(4-pyridin-3ylthiazol-2-ylamino)phenyl]benzamide], which “first response events: AFIRMM score” value (at 6.0 mg/kg/day) is on record?
Answer: The value was 5.

Question: What about the “first response events: Cumulative Frequency” value (at 6.0 mg/kg/day) of the same compound?
Answer: Its value is 96%.

Question: What about the “first response events: Flush” value (at 6.0 mg/kg/day) of the same compound?
Answer: The value was 4.

Question: And the “first response events: Hamilton” value (at 6.0 mg/kg/day)?
Answer: Its value is 4.

Question: And the “first response events: Micturition” value (at 6.0 mg/kg/day)?
Answer: The value was 1.

Question: What about the “first response events: OPA score” value (at 6.0 mg/kg/day) of the same compound?
Answer: Its value is 4.

Question: And the “first response events: Pruritus” value (at 6.0 mg/kg/day)?
Answer: Its value is 4.

Question: And the “first response events: QLQ30 Functional” value (at 6.0 mg/kg/day)?
Answer: The value was 1.

Question: What about the “first response events: QLQ30 Global” value (at 6.0 mg/kg/day) of the same compound?
Answer: The value was 2.

Question: And the “first response events: QLQ30 Symptom” value (at 6.0 mg/kg/day)?
Answer: Its value is 1.

Question: And the “first response events: Stool” value (at 6.0 mg/kg/day)?
Answer: The value was 2.

Question: And the “first response events: Total events” value (at 6.0 mg/kg/day)?
Answer: The value was 28.

Question: What about the “first response events: Cumulative Frequency” value (at 7.5 mg/kg/day) of the same compound?
Answer: The value was 100%.

Question: What about the “first response events: Flush” value (at 7.5 mg/kg/day) of the same compound?
Answer: Its value is 1.

Question: And the “first response events: OPA score” value (at 7.5 mg/kg/day)?
Answer: Its value is 1.

Question: And the “first response events: QLQ30 Symptom” value (at 7.5 mg/kg/day)?
Answer: The value was 1.

Question: What about the “first response events: Total events” value (at 7.5 mg/kg/day) of the same compound?
Answer: Its value is 3.

Question: What about the “AFIRMM ΔMean ± SD” value (W4) of the same compound?
Answer: Its value is −44.5 ± 51.6.

Question: And the “Flushes per day ΔMean ± SD” value (W4)?
Answer: Its value is −1.1 ± 1.8.

Question: What about the “Hamilton rating ΔMean ± SD” value (W4) of the same compound?
Answer: The value was −5.9 ± 3.2.

Question: What about the “Micturitions per day ΔMean ± SD” value (W4) of the same compound?
Answer: Its value is −2.5 ± 3.3.

Question: And the “OPA Score Change: (2, 3, 4) to (0, 1)” value (W4)?
Answer: The value was 3 (18%).

Question: And the “OPA Score No change” value (W4)?
Answer: Its value is 14 (82%).

Question: What about the “Pruritus ΔMean ± SD” value (W4) of the same compound?
Answer: The value was −2.8 ± 3.7.

Question: What about the “QLQC30 Functional ΔMean ± SD” value (W4) of the same compound?
Answer: The value was 8.7 ± 18.2.

Question: And the “QLQC30 Global Health ΔMean ± SD” value (W4)?
Answer: Its value is 8.3 ± 25.5.

Question: What about the “QLQC30 Symptom ΔMean ± SD” value (W4) of the same compound?
Answer: The value was −4.1 ± 7.8.

Question: And the “Stools per day ΔMean ± SD” value (W4)?
Answer: The value was −4.3 ± 2.6.

Question: And the “AFIRMM ΔMean ± SD” value (W12)?
Answer: The value was −61.9 ± 45.9.

Question: What about the “Flushes per day ΔMean ± SD” value (W12) of the same compound?
Answer: Its value is −1.6 ± 1.5.

Question: And the “Hamilton rating ΔMean ± SD” value (W12)?
Answer: The value was −4.6 ± 4.9.

Question: And the “Micturitions per day ΔMean ± SD” value (W12)?
Answer: Its value is −5.4 ± 2.6.

Question: What about the “OPA Score Change: (2, 3, 4) to (0, 1)” value (W12) of the same compound?
Answer: The value was 3 (20%).

Question: And the “OPA Score No change” value (W12)?
Answer: Its value is 16 (80%).

Question: And the “Pruritus ΔMean ± SD” value (W12)?
Answer: Its value is −3.3 ± 3.0.

Question: And the “QLQC30 Functional ΔMean ± SD” value (W12)?
Answer: Its value is 11.6 ± 16.4.

Question: What about the “QLQC30 Global Health ΔMean ± SD” value (W12) of the same compound?
Answer: The value was 16.1 ± 26.4.

Question: And the “QLQC30 Symptom ΔMean ± SD” value (W12)?
Answer: Its value is −7.0 ± 15.2.

Question: What about the “Stools per day ΔMean ± SD” value (W12) of the same compound?
Answer: Its value is −4.2 ± 3.0.

Question: And the “AFIRMM ΔMean ± SD” value (W24)?
Answer: Its value is −66.0 ± 29.9.

Question: What about the “Flushes per day ΔMean ± SD” value (W24) of the same compound?
Answer: Its value is −1.9 ± 3.1.

Question: What about the “Hamilton rating ΔMean ± SD” value (W24) of the same compound?
Answer: Its value is −2.8 ± 9.2.

Question: What about the “Micturitions per day ΔMean ± SD” value (W24) of the same compound?
Answer: Its value is −4.3 ± 5.9.

Question: What about the “OPA Score Change: (2, 3, 4) to (0, 1)” value (W24) of the same compound?
Answer: The value was 0 (0%).

Question: And the “OPA Score No change” value (W24)?
Answer: The value was 3 (100%).

Question: And the “Pruritus ΔMean ± SD” value (W24)?
Answer: Its value is −5.1 ± 4.7.

Question: And the “QLQC30 Functional ΔMean ± SD” value (W24)?
Answer: Its value is 15.3 ± 10.6.

Question: What about the “QLQC30 Global Health ΔMean ± SD” value (W24) of the same compound?
Answer: The value was 18.8 ± 27.5.

Question: What about the “QLQC30 Symptom ΔMean ± SD” value (W24) of the same compound?
Answer: The value was −19.9 ± 8.2.

Question: And the “Stools per day ΔMean ± SD” value (W24)?
Answer: Its value is −2.5 ± 2.1.

Question: And the “AFIRMM ΔMean ± SD” value (W36)?
Answer: Its value is −62.4 ± 31.8.

Question: What about the “Flushes per day ΔMean ± SD” value (W36) of the same compound?
Answer: The value was −2.1 ± 3.5.

Question: What about the “Hamilton rating ΔMean ± SD” value (W36) of the same compound?
Answer: The value was −10.3 ± 5.1.

Question: And the “Micturitions per day ΔMean ± SD” value (W36)?
Answer: The value was −6.5 ± 6.4.

Question: What about the “OPA Score Change: (2, 3, 4) to (0, 1)” value (W36) of the same compound?
Answer: Its value is 1 (20%).

Question: What about the “OPA Score No change” value (W36) of the same compound?
Answer: The value was 4 (80%).

Question: What about the “Pruritus ΔMean ± SD” value (W36) of the same compound?
Answer: The value was −6.9 ± 3.5.

Question: What about the “QLQC30 Functional ΔMean ± SD” value (W36) of the same compound?
Answer: The value was 5.8 ± 16.7.

Question: And the “QLQC30 Global Health ΔMean ± SD” value (W36)?
Answer: The value was 21.7 ± 26.1.

Question: And the “QLQC30 Symptom ΔMean ± SD” value (W36)?
Answer: Its value is −14.4 ± 6.5.

Question: What about the “Stools per day ΔMean ± SD” value (W36) of the same compound?
Answer: Its value is −0.7 ± 3.2.

Question: And the “AFIRMM ΔMean ± SD” value (W48)?
Answer: Its value is −64.3 ± 48.5.

Question: And the “Flushes per day ΔMean ± SD” value (W48)?
Answer: Its value is −2.8 ± 2.9.

Question: What about the “Hamilton rating ΔMean ± SD” value (W48) of the same compound?
Answer: The value was −11.5 ± 6.4.

Question: And the “Micturitions per day ΔMean ± SD” value (W48)?
Answer: The value was −7.0 ± 2.8.

Question: And the “OPA Score Change: (2, 3, 4) to (0, 1)” value (W48)?
Answer: Its value is 2 (33%).

Question: What about the “OPA Score No change” value (W48) of the same compound?
Answer: The value was 4 (67%).

Question: And the “Pruritus ΔMean ± SD” value (W48)?
Answer: The value was −5.2 ± 4.4.

Question: What about the “QLQC30 Functional ΔMean ± SD” value (W48) of the same compound?
Answer: Its value is 0.7 ± 16.7.

Question: What about the “QLQC30 Global Health ΔMean ± SD” value (W48) of the same compound?
Answer: The value was 12.5 ± 14.7.

Question: And the “QLQC30 Symptom ΔMean ± SD” value (W48)?
Answer: The value was −10.3 ± 6.4.

Question: What about the “Stools per day ΔMean ± SD” value (W48) of the same compound?
Answer: The value was −2.0 ± 0.0.

Question: And the “AFIRMM ΔMean ± SD” value (W60)?
Answer: The value was −61.1 ± 32.9.

Question: What about the “Flushes per day ΔMean ± SD” value (W60) of the same compound?
Answer: Its value is −2.3 ± 2.9.

Question: What about the “Hamilton rating ΔMean ± SD” value (W60) of the same compound?
Answer: Its value is −8.3 ± 7.5.

Question: And the “Micturitions per day ΔMean ± SD” value (W60)?
Answer: Its value is −6.0 ± 4.2.

Question: And the “OPA Score Change: (2, 3, 4) to (0, 1)” value (W60)?
Answer: Its value is 4 (44%).

Question: What about the “OPA Score No change” value (W60) of the same compound?
Answer: Its value is 5 (56%).

Question: And the “Pruritus ΔMean ± SD” value (W60)?
Answer: The value was −4.6 ± 4.3.

Question: And the “QLQC30 Functional ΔMean ± SD” value (W60)?
Answer: Its value is 11.6 ± 11.2.

Question: And the “QLQC30 Global Health ΔMean ± SD” value (W60)?
Answer: Its value is 23.1 ± 25.3.

Question: And the “QLQC30 Symptom ΔMean ± SD” value (W60)?
Answer: Its value is −12.9 ± 8.3.

Question: What about the “Stools per day ΔMean ± SD” value (W60) of the same compound?
Answer: Its value is −4.7 ± 2.9.
